Columns and labels:
[1] = system: galectins; conditions: cited from earlier work
[2] = Uptake over CACO-2 cell monolayers; format: in vitro ADME; conditions: human; for Papp A→B: apical to basolateral; for Papp B→A: basolateral to apical; for efflux ratio: read-out: Efflux ratio Papp (B > A/A > B)
Source text: Uptake of a drug over the intestine can be predicted measuring the uptake over a monolayer of CACO-2 cells measured as Papp(10^-6 cm/s). […] By introduction of small alkyl substituents to the galactoside 2-OH such as compounds of formula (1) results in low or no efflux combined with a high uptake (Papp >10 10^-6 cm/s) over CACO-2 cells from the apical to the basolateral side of the cells.

[3] = molecular target: galectin-3 (Homo sapiens (Human), UniProt P17931); assay: Fluorescence anisotropy assay, inhibition of galectin / fluorescein tagged saccharide probe interaction; format: binding
galectin-3, sequence (P17931 whole entry): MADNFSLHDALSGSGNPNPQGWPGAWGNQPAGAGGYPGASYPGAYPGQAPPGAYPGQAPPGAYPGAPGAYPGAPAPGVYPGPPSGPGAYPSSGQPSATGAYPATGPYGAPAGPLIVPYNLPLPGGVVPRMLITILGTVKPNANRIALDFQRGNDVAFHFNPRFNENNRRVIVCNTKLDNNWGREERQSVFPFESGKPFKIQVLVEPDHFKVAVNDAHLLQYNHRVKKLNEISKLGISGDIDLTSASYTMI

| Papp A→B [2] [×10⁻⁶ cm/s] | Papp B→A [2] [×10⁻⁶ cm/s] | efflux ratio [2] | Kd [3] [µM] | SMILES | Affinity, times lower than lactose ([1]; relative to lactose) | Kd ([1]; Leffler 2001, Leffler et al. 2004, read-out: Kd, all galectins) [µM] |
| --- | --- | --- | --- | --- | --- | --- |
| – | – | – | – | O=C[C@H](O)[C@@H](O)[C@@H](O)[C@H](O)CO [D-galactose] | 50-100 times | – |
| 30 | 38 | 1.2 | 0.025 | CO[C@@H]1[C@@H](n2cc(-c3cc(F)c(F)c(F)c3)nn2)[C@@H](O)[C@@H](CO)O[C@@H]1Sc1cncc(Br)c1 [Example 1, 5-Bromopyridin-3-yl 3-deoxy-3-[4-(3,4,5-trifluorophenyl)-1H-1,2,3-triazol-1-yl]-2-O-methyl-1-thio-α-D-galactopyranoside] | – | – |
| – | – | – | – | OC[C@H]1O[C@@H](O[C@H]2[C@H](O)[C@@H](O)C(O)O[C@@H]2CO)[C@H](O)[C@@H](O)[C@H]1O (stereo partly shown) [lactose] | – | 500 to 1000 |
| 18 | 23 | 1.3 | 0.014 | CO[C@@H]1[C@@H](n2cc(-c3ccc(C)c(F)c3)nn2)[C@@H](O)[C@@H](CO)O[C@@H]1Sc1cc(Cl)cnc1C#N [Example 13, 5-Chloro-2-cyanopyridin-3-yl 3-deoxy-3-[4-(3-fluoro-4-methylphenyl)-1H-1,2,3-triazol-1-yl]-2-O-methyl-1-thio-α-D-galactopyranoside] | – | – |
